Values after ≈ are worked out from the molar mass of the structure shown. Ends that are not written are not given here.

The test system of one assay is sensitive test strain. Put plainly: Test-disc bioassay of antibacterial activity of gallidermin preparations. The format is cell-based. Particulars: dilutions of stock solutions on test discs, same concentrations. The procedure: FIGS. 12A and B show the result of the proteolytic (trypsin) conversion of pregallidermins into gallidermin. […] Dilutions for a stock solution of either compound were applied onto test discs and incubated in the presence of a sensitive test strain. […] Pre-gallidermins (1.09 g/l) were incubated with trypsin (0.2 g/l) 1 h, RT, pH 6.5,
Of all proteases examined, only trypsin appeared to be suitable for a commercial and industrialised process. […] We have disclosed the feasibility to selectively cleave pre-gallidermins into mature gallidermin using serine-type proteases and trypsin in particular. While we have employed soluble enzyme preparations, alternatives, such as immobilized enzyme preparations, could be used instead. This would facilitate the repetitive use of such enzymes and avoid possible contaminations of the final product by trypsin, even though, trypsin is generally regarded as safe (GRAS).

The test system of a further assay is S. gallinarum (pGV5). Put plainly: Minimum inhibitory concentration of kanamycin used for selection. The format is cell-based, Staphylococcus gallinarum. Particulars: B-medium. Here is the method:
FIG. 4 is a schematic representation of the strategy employed for the selection of gdmP knock-out strains. Cm: chloramphenicol; Kan: kanamycin; MIC: minimum inhibitory concentration; R: resistance; S: sensitivity;
A first S. gallinarum (pGV5) culture was started inoculating 10 ml kanamycin-supplemented ([…]) B-medium with a single colony of a transformed cell. Culture was incubated shaking with 225 rpm at 30° C., a temperature that allowed pGV5 to replicate as free plasmid (permissive temperature), until late stationary phase (16h). With this culture, new cultures were inoculated (1:100) and incubated shaking with 225 rpm at 30° C. into the late stationary phase (16 h). […] This step was repeated once, before diluting the cultures 1:100 into 100 ml B-medium containing no antibiotic. Growth at 40° C. was extended for another 24 hours.

“gallidermin [in-situ activated gallidermin] (IASKFLCTPGCAKTGSFNSYCC; also: lantibiotic with dehydroamino residues and thioether bridges, places not given here, in-situ activated form; UniProt P21838 31-52, looked up)”: in the assay with sensitive test strain, the “bioactivity compared with gallidermin isolated from the wild-type strain” value is recorded as “same bioactivity”.

In the assay on S. gallinarum (pGV5), `NC[C@H]1O[C@H](O[C@H]2[C@H](O)[C@@H](O[C@H]3O[C@H](CO)[C@@H](O)[C@H](N)[C@H]3O)[C@H](N)C[C@@H]2N)[C@H](O)[C@@H](O)[C@@H]1O` [kanamycin] had an MIC value of 7500 µg/mL (≈ 15.5 mM).

The values are drawn from US20100009405A1, “Biosynthetic process for the preparation of gallidermin” (priority 2005, published 2010).
